Where “and” joins values, the source holds several entries; their conditions need not be identical. Equal entries are not always repeated. Structures can show the parent of a compound that is named as a salt.
Tests used:
GIST = settings: cited from earlier work
[1] = Plasma pharmacokinetics by LC/PDA; settings: for IM trough levels (mean) / Cmax: 400 mg once daily; for Cmax: human, in vivo, im, 400 mg, IM Cmax (mean)
[2] = salvage treatment, ref Demetri et al, 2006, 2012
[3] = ref Verweij et al, 2004, Blanke et al, 2008a, 2008b

Row | Compound | median time to progression (GIST; [2]) | objective remissions (GIST; [2]) | median overall survival (GIST; [3]) | patients with long-lasting responses (GIST; [3]) | IM trough levels (mean) ([1]; with pan) | IM trough levels (mean) ([1]; with pan (combination therapy), ± s.e.m.) | IM trough levels (mean) ([1]; without pan) | IM trough levels (mean) ([1]; without pan (run-in), ± s.e.m.) | increase of the mean Cmax of IM ([1]; combination with panobinostat vs run-in, not statistically significant) | Cmax ([1]; with pan) | Cmax ([1]; without pan (7-day run-in), ± s.e.m.)
1 | CCN(CC)CCNC(=O)c1c(C)[nH]c(/C=C2\C(=O)Nc3ccc(F)cc32)c1C [sunitinib] | ~6 months | 7% |  |  |  |  |  |  |  |  | 
2 | Cc1ccc(NC(=O)c2ccc(CN3CCN(C)CC3)cc2)cc1Nc1nccc(-c2cccnc2)n1 [IM, Imatinib mesylate] |  |  | 5 years | 82–86% | 2.2 µM | 1290 ng ml^−1 and 1290 (±440) ng ml^−1 | 1.8 µM | 1085 ng ml^−1 and 1085 (±480) ng ml^−1 | 23% | 4.3 µM | 2070 ng/mL
